These results are taken from patent publication US10729749B2, “Neurodegenerative disorders” (priority 2014, dated 2020).

Ends that are not written are not given here.

What is called viability is a read-out of living cells in per cent, often relative to untreated cells.

In data set [1] the test system is PC12 cells. The data set is described as follows: Acetylcholinesterase activity assay (AChE release from PC12 cells, Ellman reagent). As to conditions: % AChE release compared to untreated control. The data set is classed as cell-based. As to the method: AChE activity was measured using the Ellman reagent that measures the presence of thiol groups as a result of AChE activity. Cells were plated the day before the experiment as for the cell viability assay. […] The Ellman reagent was prepared as a mixture of the 3 solutions in a ratio 33(A):3(B):4(C). Absorbance measurements were taken at regular intervals (3, 10, 30 and 60 mins) across experiments at 405 nm.
A general note: Ellman's reagent forms a yellow product with free thiols.

The subject of data set [2] is PC12 cells. The data set is described as follows: Value coefficient (AChE release vs PC12 cell viability) and filter selection. Format: cell-based. As to conditions: for Value AChE/Viability: 1.0 to 1.1 = protective, control = 1.
Description: AChE release vs PC12 cell viability (for which there is a significant negative correlation); • 2. In silico binding to the allosteric site of the α7 nicotinic-receptor; • 3. Calcium influx into PC12 cells; and • 4. Peptide size.
A short description of data set [3]: Cell viability assay (Cell Counting Kit-8).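 Further: PC12 cells in 96-well plates, WST-8 turned into formazan by cellular dehydrogenases, absorbance read at 450 nm after 2 h with the reagent, signal proportional to living cell number.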 As to conditions: % PC12 cell viability compared to untreated control. Format: cell-based. (Tetrazolium dyes change colour on reduction, which living cells bring about.)
Description: A Cell Counting Kit-8 (CCK-8) was used as an improvement of the SRB technique used before. By utilizing the highly water-soluble tetrazolium salt WST-8, CCK-8 produces a water-soluble formazan dye upon reduction in the presence of an electron carrier. WST-8 is reduced by dehydrogenases in cells to give a yellow colored product (formazan), which is soluble in the tissue culture medium. The amount of the formazan dye generated by the activity of dehydrogenases in cells is directly proportional to the number of living cells. PC12 cells are plated in 200 μl of complete growth medium the day before the experiment in 96 well plates. […] Subsequently, 100 μl of growth medium is removed and 10 μl of CCK-8 (Cell Counting Kit-8) solution is added. The plate is incubated for 2 hours in the incubator and then placed in the absorbance plate reader. The absorbance must be measured at 450 nm.
For data set [4], the system named is PC12 cells. The data set can be described thus: Calcium fluorometry (Fluo-8, acetylcholine-induced calcium influx). Format: cell-based. Further details: Calcium: scale not given here. The settings on record: calcium influx value, control based on acetylcholine alone. From the text:
A final criterion used to determine active peptides is the amount of calcium influx into PC12 cells caused by the peptide. The calcium influx value can be calculated as described in the methods section. The calcium value corresponds to the result from the experiment when applying T30 or Aβ alone or in conjunction with the small peptides. The control value for these experiments is based on the calcium influx induced by acetylcholine alone. Preferably, the peptide, derivative or analogue thereof has a calcium influx value of less than 120, and more preferably a value of 97-120.
PC12 cells are plated in 200 μl of complete growth medium the day before the experiment in 96 well plates. On the day of the experiment, the Fluo-8 solution (Abcam) is prepared (as per provider protocol). Subsequently, 100 μl of growth medium is removed and 100 μl of Fluo-8 solution is added. Treatments with T30 or Aβ in conjunction with NBP-14 or small peptides are added and incubated for 30 minutes in the incubator and 30 minutes room temperature.
After 1 hour, the plate is placed in the fluorescence plate reader (Fluostar). Before reading the fluorescence, acetylcholine (ACh) 100 μM is prepared and placed in the Fluostar injector. For each well, the reading will be formed by a basal fluorescence followed by acetylcholine injection that will induce an increase of calcium via nicotinic receptors. The effects of the peptides are then evaluated.

The target of a further data set is α7 nicotinic-receptor (Homo sapiens, UniProt P36544). The settings on record: cited from earlier work.
[5] abbreviates: T30 5 μM + small peptide 0.5 μM.

α7 nicotinic-receptor, sequence (P36544 23-502): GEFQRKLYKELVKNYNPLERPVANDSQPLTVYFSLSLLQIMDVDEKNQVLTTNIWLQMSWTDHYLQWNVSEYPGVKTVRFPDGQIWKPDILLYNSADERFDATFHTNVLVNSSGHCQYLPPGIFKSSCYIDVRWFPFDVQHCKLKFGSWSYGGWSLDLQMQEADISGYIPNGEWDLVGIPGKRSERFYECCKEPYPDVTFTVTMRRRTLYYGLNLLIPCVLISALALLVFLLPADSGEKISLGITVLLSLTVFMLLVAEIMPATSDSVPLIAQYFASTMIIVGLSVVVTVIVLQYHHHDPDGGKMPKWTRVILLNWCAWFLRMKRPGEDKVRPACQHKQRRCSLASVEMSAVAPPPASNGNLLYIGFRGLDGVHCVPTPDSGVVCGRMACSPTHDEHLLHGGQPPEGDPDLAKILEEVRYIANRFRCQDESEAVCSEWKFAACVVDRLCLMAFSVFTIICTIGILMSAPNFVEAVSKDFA

As for HRWSSYMVHWKA [NBP-1207], the AChE in the data set with PC12 cells [1] (Aβ 5 μM + small peptide 0.5 μM) was determined as 94.30%. In the data set on PC12 cells [2] (Aβ 5 μM + small peptide 0.5 μM), the “Value AChE/Viability” value is given as 1.08. Also, the viability in data set [3] (Aβ 5 μM + small peptide 0.5 μM) amounted to 87.4%. Further, the Calcium in the data set with PC12 cells [4] (Aβ + small peptide) is 261.22.
With SSYMVHW [NBP-710, SSYMVHW], the AChE with PC12 cells [1] (Aβ 5 μM + small peptide 0.5 μM) worked out at 108.85%. In the data set with PC12 cells [2] (Aβ 5 μM + small peptide 0.5 μM), the “Value AChE/Viability” value was found to be 1. Besides, in the data set on PC12 cells [2] (filters: value coefficient, in silico binding, calcium influx, peptide size), the “neuroprotective agent against Aβ when all four filters are taken into consideration” value is on record as “agents against Aβ”. The viability in data set [3] (Aβ 5 μM + small peptide 0.5 μM) stood at 109%. Besides, the Calcium with PC12 cells [4] (Aβ + small peptide) is given as 114.33.
Consider KAEFHRWSSYMV [NBP-1203], for which the AChE in the data set on PC12 cells [1] (Aβ 5 μM + small peptide 0.5 μM) worked out at 99.63%. In addition, in the data set with PC12 cells [2] (Aβ 5 μM + small peptide 0.5 μM), the “Value AChE/Viability” value is 1.04. In addition, the viability in data set [3] (Aβ 5 μM + small peptide 0.5 μM) stood at 95.5%. Further, the Calcium with PC12 cells [4] (Aβ + small peptide) is 192.38.
For EFHRWSSYM [NBP-905] the same measures were 106.42%, 1.09, 97.2% and 194.22.
Regarding AEFHRWSSYMV [NBP-1104], in the data set with PC12 cells [1] (setting [5]), the AChE is reported as 102.36%. The “Value AChE/Viability” value in the data set with PC12 cells [2] (setting [5]) came to 1. For the same substance, the viability in data set [3] (setting [5]) was 111%. In the data set on PC12 cells [4] (T30 + small peptide), the Calcium is listed as 119.82.
Take SYMVHWK [NBP-711]: in the data set on PC12 cells [1] (Aβ 5 μM + small peptide 0.5 μM), the AChE was found to be 108.57%. The “Value AChE/Viability” value in the data set on PC12 cells [2] (Aβ 5 μM + small peptide 0.5 μM) is on record as 1.02. The viability in data set [3] (Aβ 5 μM + small peptide 0.5 μM) is 106%. Also, in the data set with PC12 cells [4] (Aβ + small peptide), the Calcium is given as 148.17.
Turning to WSSYM [NBP-509], in the data set with PC12 cells [1] (Aβ 5 μM + small peptide 0.5 μM), the AChE is 106.20%. Besides, the “Value AChE/Viability” value in the data set with PC12 cells [2] (Aβ 5 μM + small peptide 0.5 μM) is recorded as 1.04. For the same substance, in data set [3] (Aβ 5 μM + small peptide 0.5 μM), the viability stood at 102%. The Calcium in the data set with PC12 cells [4] (Aβ + small peptide) is 363.48.
For MVHWKAEFHRWSSY [NBP-1413] the same measures were 99.85%, 1.05, 95.2% and 125.28.
With MVHWKAEFHRWS [NBP-1213], in the data set with PC12 cells [1] (Aβ 5 μM + small peptide 0.5 μM), the AChE amounted to 93.73%. For the same substance, the “Value AChE/Viability” value with PC12 cells [2] (Aβ 5 μM + small peptide 0.5 μM) is on record as 1.03. Moreover, the viability in data set [3] (Aβ 5 μM + small peptide 0.5 μM) is 90.8%. Further, in the data set with PC12 cells [4] (Aβ + small peptide), the Calcium was found to be 146.97.
For SSYMVHWK [NBP-810] the same measures were 96.22%, 1.01, 95.3% and 156.05.
Regarding EFHRWSSYMVHW [NBP-1205], in the data set with PC12 cells [1] (setting [5]), the AChE came to 95.79%. Also, the “Value AChE/Viability” value in the data set on PC12 cells [2] (setting [5]) was 1.07. Besides, in data set [3] (setting [5]), the viability stood at 89.4%. Further, the Calcium in the data set with PC12 cells [4] (T30 + small peptide) worked out at 132.71.
On to WSSYMVHWKA [NBP-1009], for which the AChE in the data set on PC12 cells [1] (Aβ 5 μM + small peptide 0.5 μM) amounted to 101.23%. In the data set with PC12 cells [2] (Aβ 5 μM + small peptide 0.5 μM), the “Value AChE/Viability” value worked out at 1.04. For the same substance, the viability in data set [3] (Aβ 5 μM + small peptide 0.5 μM) was determined as 97.5%. Besides, the Calcium in the data set on PC12 cells [4] (Aβ + small peptide) is reported as 255.80.
WKAEFHRWSSYMVH [NBP-1402]: the AChE with PC12 cells [1] (Aβ 5 μM + small peptide 0.5 μM) is reported as 99.85%. The “Value AChE/Viability” value with PC12 cells [2] (Aβ 5 μM + small peptide 0.5 μM) was determined as 1.09. Besides, the viability in data set [3] (Aβ 5 μM + small peptide 0.5 μM) was found to be 91.6%. The Calcium in the data set with PC12 cells [4] (Aβ + small peptide) is reported as 127.81.
On to HRWSSYMVHWKAEF [NBP-1407], for which, in the data set on PC12 cells [1] (setting [5]), the AChE came to 94.49%. In addition, in the data set on PC12 cells [2] (setting [5]), the “Value AChE/Viability” value is 1.04. In data set [3] (setting [5]), the viability amounted to 90.5%. The Calcium in the data set on PC12 cells [4] (T30 + small peptide) is 111.71.
For YMVHWKAEFHRW [NBP-1212] the same measures were 88.29%, 1, 88.3% and 78.
For MVHWKAEFHRWSS [NBP-1313] the same measures were 93.64%, 1.05, 89% and 118.94.
Consider “AEFHRWSSYMVHWK (listed as Homo sapiens) [T14, linear 14 amino acid peptide from the C-terminus of AChE]”, for which the “affinity for the α7 nicotinic-receptor” value in the data set with α7 nicotinic-receptor is on record as 5 nM.
Regarding WKAEFH [NBP-602], the AChE in the data set on PC12 cells [1] (setting [5]) turned out to be 112.32%. Further, the “Value AChE/Viability” value in the data set on PC12 cells [2] (setting [5]) was determined as 1.04. Also, the viability in data set [3] (setting [5]) is 108%. In addition, in the data set on PC12 cells [4] (T30 + small peptide), the Calcium was 169.86.
With YMVHWKAEFHR [NBP-1112], the AChE in the data set on PC12 cells [1] (Aβ 5 μM + small peptide 0.5 μM) was found to be 98.77%. Moreover, the “Value AChE/Viability” value in the data set on PC12 cells [2] (Aβ 5 μM + small peptide 0.5 μM) was 1.06. Also, in data set [3] (Aβ 5 μM + small peptide 0.5 μM), the viability came out at 93.4%. The Calcium in the data set with PC12 cells [4] (Aβ + small peptide) came to 127.62.
